Test results taken from ChEMBL document CHEMBL5252552, “Defined concatenated α6α1β3γ2 GABAA receptor constructs reveal dual action of pyrazoloquinolinone allosteric modulators” (Bioorg Med Chem, 2019).

Assays:
[1] = target: T1, Gamma-aminobutyric acid receptor subunit alpha-6/beta-3/gamma-2 (Rattus norvegicus, UniProt P18508+P30191+P63079); experiment: Positive allosteric modulation of rat recombinant GABAA alpha6beta3alpha6-gamma2beta3 receptor expressed in Xenopus laevis oocytes assessed as increase in GABA-induced current amplitude at -80 mV holding potential in presence of GABA EC1 to 1.5 by two-electrode voltage-clamp assay; type: cell-based, Oocyte
[2] = target: T2, Gamma-aminobutyric acid receptor subunit alpha-6/beta-3/gamma-2 (Rattus norvegicus) (UniProt P18508+P30191+P63079); experiment: Positive allosteric modulation of rat recombinant GABAA alpha6beta3alpha6-gamma2beta3 receptor expressed in Xenopus laevis oocytes assessed as maximal current at -80 mV holding potential in presence of GABA EC1 to 1.5 by two-electrode voltage-clamp assay relative to control; type: cell-based; details: Oocyte, filed as positive allosteric modulator
[3] = target: T2, Gamma-aminobutyric acid receptor subunit alpha-6/beta-3/gamma-2 (Rattus norvegicus); experiment: Positive allosteric modulation of rat recombinant GABAA alpha6beta3alpha6-gamma2beta3 receptor expressed in Xenopus laevis oocytes assessed as maximal efficacy at -80 mV holding potential at 1 nM in presence of GABA EC1 to 1.5 by two-electrode voltage-clamp assay; type: cell-based; details: Oocyte
[4] = target: T2, Gamma-aminobutyric acid receptor subunit alpha-6/beta-3/gamma-2 (Rattus norvegicus); experiment: Positive allosteric modulation of rat recombinant GABAA alpha6beta3alpha6-gamma2beta3 receptor expressed in Xenopus laevis oocytes assessed as maximal efficacy at -80 mV holding potential at 3 nM in presence of GABA EC1 to 1.5 by two-electrode voltage-clamp assay; type: cell-based; details: Oocyte
[5] = target: T2, Gamma-aminobutyric acid receptor subunit alpha-6/beta-3/gamma-2 (Rattus norvegicus); experiment: Positive allosteric modulation of rat recombinant GABAA alpha6beta3alpha6-gamma2beta3 receptor expressed in Xenopus laevis oocytes assessed as maximal efficacy at -80 mV holding potential at 10 nM in presence of GABA EC1 to 1.5 by two-electrode voltage-clamp assay; type: cell-based; details: Oocyte
[6] = target: T2, Gamma-aminobutyric acid receptor subunit alpha-6/beta-3/gamma-2 (Rattus norvegicus); experiment: Positive allosteric modulation of rat recombinant GABAA alpha6beta3alpha6-gamma2beta3 receptor expressed in Xenopus laevis oocytes assessed as maximal efficacy at -80 mV holding potential at 30 nM in presence of GABA EC1 to 1.5 by two-electrode voltage-clamp assay; type: cell-based; details: Oocyte
[7] = target: T2, Gamma-aminobutyric acid receptor subunit alpha-6/beta-3/gamma-2 (Rattus norvegicus); experiment: Positive allosteric modulation of rat recombinant GABAA alpha6beta3alpha6-gamma2beta3 receptor expressed in Xenopus laevis oocytes assessed as maximal efficacy at -80 mV holding potential at 100 nM in presence of GABA EC1 to 1.5 by two-electrode voltage-clamp assay; type: cell-based; details: Oocyte, filed as positive allosteric modulator
[8] = target: T2, Gamma-aminobutyric acid receptor subunit alpha-6/beta-3/gamma-2 (Rattus norvegicus); experiment: Positive allosteric modulation of rat recombinant GABAA alpha6beta3alpha6-gamma2beta3 receptor expressed in Xenopus laevis oocytes assessed as maximal efficacy at -80 mV holding potential at 300 nM in presence of GABA EC1 to 1.5 by two-electrode voltage-clamp assay; type: cell-based; details: Oocyte, filed as positive allosteric modulator
[9] = target: T2, Gamma-aminobutyric acid receptor subunit alpha-6/beta-3/gamma-2 (Rattus norvegicus); experiment: Positive allosteric modulation of rat recombinant GABAA alpha6beta3alpha6-gamma2beta3 receptor expressed in Xenopus laevis oocytes assessed as maximal efficacy at -80 mV holding potential at 1 uM in presence of GABA EC1 to 1.5 by two-electrode voltage-clamp assay; type: cell-based; details: Oocyte, filed as positive allosteric modulator
[10] = target: T2, Gamma-aminobutyric acid receptor subunit alpha-6/beta-3/gamma-2 (Rattus norvegicus); experiment: Positive allosteric modulation of rat recombinant GABAA alpha6beta3alpha6-gamma2beta3 receptor expressed in Xenopus laevis oocytes assessed as maximal efficacy at -80 mV holding potential at 3 uM in presence of GABA EC1 to 1.5 by two-electrode voltage-clamp assay; type: cell-based; details: Oocyte, filed as positive allosteric modulator
[11] = target: T2, Gamma-aminobutyric acid receptor subunit alpha-6/beta-3/gamma-2 (Rattus norvegicus); experiment: Positive allosteric modulation of rat recombinant GABAA alpha6beta3alpha6-gamma2beta3 receptor expressed in Xenopus laevis oocytes assessed as maximal efficacy at -80 mV holding potential at 10 uM in presence of GABA EC1 to 1.5 by two-electrode voltage-clamp assay; type: cell-based; details: Oocyte, filed as positive allosteric modulator
[12] = target: T2, Gamma-aminobutyric acid receptor subunit alpha-6/beta-3/gamma-2 (Rattus norvegicus); experiment: Positive allosteric modulation of rat recombinant GABAA alpha6beta3alpha6-gamma2beta3 receptor expressed in Xenopus laevis oocytes assessed as maximal efficacy at -80 mV holding potential at 30 uM in presence of GABA EC1 to 1.5 by two-electrode voltage-clamp assay; type: cell-based; details: Oocyte, filed as positive allosteric modulator
[13] = target: T1, Gamma-aminobutyric acid receptor subunit alpha-6/beta-3/gamma-2; experiment: Positive allosteric modulation of rat recombinant GABAA alpha6beta3alpha6-gamma2beta3 receptor expressed in Xenopus laevis oocytes assessed as increase in GABA-induced current amplitude at -80 mV holding potential under more potent phase in presence of GABA EC1 to 1.5 by two-electrode voltage-clamp assay; type: cell-based, Oocyte
[14] = target: T1, Gamma-aminobutyric acid receptor subunit alpha-6/beta-3/gamma-2; experiment: Positive allosteric modulation of rat recombinant GABAA alpha6beta3alpha6-gamma2beta3 receptor expressed in Xenopus laevis oocytes assessed as increase in GABA-induced current amplitude at -80 mV holding potential under less potent phase in presence of GABA EC1 to 1.5 by two-electrode voltage-clamp assay; type: cell-based, Oocyte
[15] = target: T2, Gamma-aminobutyric acid receptor subunit alpha-6/beta-3/gamma-2 (Rattus norvegicus); experiment: Positive allosteric modulation of rat recombinant GABAA alpha6beta3alpha6-gamma2beta3 receptor expressed in Xenopus laevis oocytes assessed as maximal current at -80 mV holding potential under more potent phase in presence of GABA EC1 to 1.5 by two-electrode voltage-clamp assay relative to control; type: cell-based; details: Oocyte, filed as positive allosteric modulator
[16] = target: T2, Gamma-aminobutyric acid receptor subunit alpha-6/beta-3/gamma-2 (Rattus norvegicus); experiment: Positive allosteric modulation of rat recombinant GABAA alpha6beta3alpha6-gamma2beta3 receptor expressed in Xenopus laevis oocytes assessed as maximal current under less potent phase in presence of GABA EC1 to 1.5 by two-electrode voltage-clamp assay relative to control; type: cell-based; details: Oocyte, filed as positive allosteric modulator
[17] = target: T3, Gamma-aminobutyric acid receptor subunit alpha-1/beta-3/gamma-2 (Rattus norvegicus) (UniProt P18508+P62813+P63079); experiment: Positive allosteric modulation of rat recombinant GABAA alpha1beta3alpha1-gamma2beta3 receptor expressed in Xenopus laevis oocytes assessed as maximal efficacy at -80 mV holding potential at 30 nM in presence of GABA EC1 to 1.5 by two-electrode voltage-clamp assay; type: cell-based; details: Oocyte
[18] = target: T3, Gamma-aminobutyric acid receptor subunit alpha-1/beta-3/gamma-2 (Rattus norvegicus); experiment: Positive allosteric modulation of rat recombinant GABAA alpha1beta3alpha1-gamma2beta3 receptor expressed in Xenopus laevis oocytes assessed as maximal efficacy at -80 mV holding potential at 100 nM in presence of GABA EC1 to 1.5 by two-electrode voltage-clamp assay; type: cell-based; details: Oocyte
[19] = target: T3, Gamma-aminobutyric acid receptor subunit alpha-1/beta-3/gamma-2 (Rattus norvegicus); experiment: Positive allosteric modulation of rat recombinant GABAA alpha1beta3alpha1-gamma2beta3 receptor expressed in Xenopus laevis oocytes assessed as maximal efficacy at -80 mV holding potential at 300 nM in presence of GABA EC1 to 1.5 by two-electrode voltage-clamp assay; type: cell-based; details: Oocyte
[20] = target: T3, Gamma-aminobutyric acid receptor subunit alpha-1/beta-3/gamma-2 (Rattus norvegicus); experiment: Positive allosteric modulation of rat recombinant GABAA alpha1beta3alpha1-gamma2beta3 receptor expressed in Xenopus laevis oocytes assessed as maximal efficacy at -80 mV holding potential at 30 uM in presence of GABA EC1 to 1.5 by two-electrode voltage-clamp assay; type: cell-based; details: Oocyte, filed as positive allosteric modulator
[21] = target: T4, Gamma-aminobutyric acid receptor subunit alpha-1/alpha-6/beta-3/gamma-2 (Rattus norvegicus) (UniProt P18508+P30191+P62813+P63079); experiment: Positive allosteric modulation of rat recombinant GABAA alpha6beta3alpha1-gamma2beta3 receptor expressed in Xenopus laevis oocytes assessed as maximal efficacy at -80 mV holding potential at 30 nM in presence of GABA EC1 to 1.5 by two-electrode voltage-clamp assay; type: cell-based; details: Oocyte
[22] = target: T4, Gamma-aminobutyric acid receptor subunit alpha-1/alpha-6/beta-3/gamma-2 (Rattus norvegicus); experiment: Positive allosteric modulation of rat recombinant GABAA alpha6beta3alpha1-gamma2beta3 receptor expressed in Xenopus laevis oocytes assessed as maximal efficacy at -80 mV holding potential at 100 nM in presence of GABA EC1 to 1.5 by two-electrode voltage-clamp assay; type: cell-based; details: Oocyte
[23] = target: T4, Gamma-aminobutyric acid receptor subunit alpha-1/alpha-6/beta-3/gamma-2 (Rattus norvegicus); experiment: Positive allosteric modulation of rat recombinant GABAA alpha6beta3alpha1-gamma2beta3 receptor expressed in Xenopus laevis oocytes assessed as maximal efficacy at -80 mV holding potential at 300 nM in presence of GABA EC1 to 1.5 by two-electrode voltage-clamp assay; type: cell-based; details: Oocyte
[24] = target: T4, Gamma-aminobutyric acid receptor subunit alpha-1/alpha-6/beta-3/gamma-2 (Rattus norvegicus); experiment: Positive allosteric modulation of rat recombinant GABAA alpha6beta3alpha1-gamma2beta3 receptor expressed in Xenopus laevis oocytes assessed as maximal efficacy at -80 mV holding potential at 30 uM in presence of GABA EC1 to 1.5 by two-electrode voltage-clamp assay; type: cell-based; details: Oocyte, filed as positive allosteric modulator
[25] = tested on: Oocyte; experiment: Positive allosteric modulation of rat recombinant GABAA alpha1beta3alpha1 receptor expressed in Xenopus laevis oocytes assessed as activation of maximal current at -80 mV holding potential in presence of GABA EC1 to 1.5 by two-electrode voltage-clamp assay; type: cell-based; details: filed as positive allosteric modulator
[26] = filed as positive allosteric modulator

T1 sequence (P18508 whole entry): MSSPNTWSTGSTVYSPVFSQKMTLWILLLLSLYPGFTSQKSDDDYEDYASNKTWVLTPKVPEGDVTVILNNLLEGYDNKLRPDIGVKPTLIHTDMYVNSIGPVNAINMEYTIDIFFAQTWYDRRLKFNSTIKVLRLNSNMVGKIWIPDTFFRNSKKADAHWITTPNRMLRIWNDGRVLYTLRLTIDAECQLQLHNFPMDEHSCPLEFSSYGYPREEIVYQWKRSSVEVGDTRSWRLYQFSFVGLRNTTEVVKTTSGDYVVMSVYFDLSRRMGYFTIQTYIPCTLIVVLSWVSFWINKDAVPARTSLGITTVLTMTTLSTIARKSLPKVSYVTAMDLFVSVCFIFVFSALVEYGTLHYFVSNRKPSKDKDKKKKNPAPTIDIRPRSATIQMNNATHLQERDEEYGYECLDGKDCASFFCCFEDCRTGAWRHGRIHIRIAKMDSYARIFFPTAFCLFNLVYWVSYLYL
T1 sequence (P30191 whole entry): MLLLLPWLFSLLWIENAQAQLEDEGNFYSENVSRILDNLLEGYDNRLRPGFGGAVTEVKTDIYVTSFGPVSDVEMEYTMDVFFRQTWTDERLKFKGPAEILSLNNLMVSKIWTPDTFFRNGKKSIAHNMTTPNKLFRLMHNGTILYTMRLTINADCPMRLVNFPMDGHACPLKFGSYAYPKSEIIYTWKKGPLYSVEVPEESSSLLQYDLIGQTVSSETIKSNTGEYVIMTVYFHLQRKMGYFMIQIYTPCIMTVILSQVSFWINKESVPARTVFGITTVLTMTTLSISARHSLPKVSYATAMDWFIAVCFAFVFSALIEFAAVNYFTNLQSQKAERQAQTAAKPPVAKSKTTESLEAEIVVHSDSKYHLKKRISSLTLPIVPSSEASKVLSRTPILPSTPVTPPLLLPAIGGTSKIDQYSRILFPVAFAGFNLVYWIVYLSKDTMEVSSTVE
T1 sequence (P63079 whole entry): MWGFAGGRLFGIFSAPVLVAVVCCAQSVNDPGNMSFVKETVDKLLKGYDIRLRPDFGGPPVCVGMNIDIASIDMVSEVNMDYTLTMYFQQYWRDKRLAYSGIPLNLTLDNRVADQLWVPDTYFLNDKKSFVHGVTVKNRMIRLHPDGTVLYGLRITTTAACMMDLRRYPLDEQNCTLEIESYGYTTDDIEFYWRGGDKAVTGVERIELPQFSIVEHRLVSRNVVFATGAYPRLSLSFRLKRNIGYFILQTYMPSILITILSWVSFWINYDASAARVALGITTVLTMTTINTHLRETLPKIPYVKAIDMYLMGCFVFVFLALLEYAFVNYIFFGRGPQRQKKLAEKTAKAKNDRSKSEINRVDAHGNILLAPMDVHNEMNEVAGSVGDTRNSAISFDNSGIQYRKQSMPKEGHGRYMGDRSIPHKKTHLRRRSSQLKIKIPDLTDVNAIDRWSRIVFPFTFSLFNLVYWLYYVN

SMILES | EC50 [1] | %max [2] | Efficacy [3] | Efficacy [4] | Efficacy [5] | Efficacy [6] | Efficacy [7] | Efficacy [8] | Efficacy [9] | Efficacy [10] | Efficacy [11] | Efficacy [12] | EC50 [13] | EC50 [14] | %max [15] | %max [16] | Efficacy [5, 26] | Efficacy [6, 26] | Efficacy [20] | Efficacy [24] | further results
C#Cc1ccc2c3nn(-c4ccc(OC)cc4)c(=O)c-3c[nH]c2c1 | 5 µM | 946% | 9% | 12% | 27% | 39% | 70% | 98% | 163% | 325% | 581% | 732% |  |  |  |  |  |  |  |  | 
COc1ccc(-n2nc3c4ccc(C(F)(F)F)cc4[nH]cc-3c2=O)cc1 |  |  | 13% | 23% |  |  | 83% | 100% | 147% | 216% | 590% | 1370% | 0.013 µM | 100 µM | 49% | 2970% | 43% | 62% | 851% | 1570% | Efficacy [17]: 9%; Efficacy [18]: 14%; Efficacy [19]: 18%; Efficacy [21]: 1%; Efficacy [22]: 5%; Efficacy [23]: 10%
CN1C(=O)CN=C(c2ccccc2)c2cc(Cl)ccc21 |  |  |  |  |  |  |  |  |  |  |  |  |  |  |  |  |  |  |  |  | Activity [25]: 30 nanoampere
COc1ccc(-n2nc3c4ccc(F)cc4[nH]cc-3c2=O)cc1 |  |  | 6% | 16% | 28% |  | 77% | 118% | 156% | 235% | 300% | 385% | 0.028 µM | 32 µM | 96% | 353% |  | 46% |  |  | 
COc1ccc(-n2nc3c4ccc(Cl)cc4[nH]cc-3c2=O)cc1 |  |  | 6% | 13% | 22% |  | 65% | 94% | 180% | 387% | 688% | 703% | 0.01 µM | 17 µM | 56% | 796% |  | 40% |  |  | 
COc1ccc(-n2nc3c4ccc(OC)cc4[nH]cc-3c2=O)cc1 |  |  | 31% |  |  |  | 125% | 143% | 178% | 234% | 400% | 702% | 0.008 µM | 118 µM | 113% | 1630% | 75% | 105% | 71% | 446% | Efficacy [4, 26]: 59%
COc1ccc(-n2nc3c4ccccc4[nH]cc-3c2=O)cc1 | 9 µM | 1480% |  | 1% | 8% | 19% | 57% | 63% | 152% | 214% | 751% | 1360% |  |  |  |  |  |  |  |  | 
COc1ccc(-n2nc3c4ccc(C)cc4[nH]cc-3c2=O)cc1 | 13 µM | 2050% | 25% | 31% |  |  | 100% | 149% | 234% | 456% | 1020% | 1310% |  |  |  |  | 40% | 60% |  |  | 
CCc1ccc2c3nn(-c4ccc(OC)cc4)c(=O)c-3c[nH]c2c1 |  |  | 3% | 4% | 21% | 29% | 54% | 74% | 127% | 216% | 621% | 1940% | 0.023 µM | 299 µM | 57% | 4980% |  |  | 1040% | 1510% | Efficacy [21]: 5%; Efficacy [22]: 5%; Efficacy [23]: 7%
